What was measured:
[1] = system: Orco subunit of the Hessian fly (Mayetiola destructor); conditions: cited from earlier work
Dmel\Or85b = system: Dmel\Or85b; set-up: method as in ref 1 Münch, D., Galizia, C.G. DoOR 2.0 (2016); conditions: ref 1 Münch, D., Galizia, C.G. DoOR 2.0 (2016); cited from earlier work
Dmel\Or67a = system: Dmel\Or67a; set-up: method as in ref 1 Münch, D., Galizia, C.G. DoOR 2.0 (2016); conditions: ref 1 Münch, D., Galizia, C.G. DoOR 2.0 (2016); cited from earlier work
Dmel\Or13a = system: Dmel\Or13a; set-up: method as in ref 1 Münch, D., Galizia, C.G. DoOR 2.0 (2016); conditions: ref 1 Münch, D., Galizia, C.G. DoOR 2.0 (2016); cited from earlier work
Agam\Orco = molecular target: T1, Agam\Orco (Anopheles gambiae, UniProt Q7QCC7); assay: cell-based; type: cell-based
T1 construct: expressed in transfected cells; host or cells: Xenopus laevis oocytes injected with capped cRNA (plasmid pT7TS, gift of L. Zwiebel)
T1 sequence (Q7QCC7 1-478): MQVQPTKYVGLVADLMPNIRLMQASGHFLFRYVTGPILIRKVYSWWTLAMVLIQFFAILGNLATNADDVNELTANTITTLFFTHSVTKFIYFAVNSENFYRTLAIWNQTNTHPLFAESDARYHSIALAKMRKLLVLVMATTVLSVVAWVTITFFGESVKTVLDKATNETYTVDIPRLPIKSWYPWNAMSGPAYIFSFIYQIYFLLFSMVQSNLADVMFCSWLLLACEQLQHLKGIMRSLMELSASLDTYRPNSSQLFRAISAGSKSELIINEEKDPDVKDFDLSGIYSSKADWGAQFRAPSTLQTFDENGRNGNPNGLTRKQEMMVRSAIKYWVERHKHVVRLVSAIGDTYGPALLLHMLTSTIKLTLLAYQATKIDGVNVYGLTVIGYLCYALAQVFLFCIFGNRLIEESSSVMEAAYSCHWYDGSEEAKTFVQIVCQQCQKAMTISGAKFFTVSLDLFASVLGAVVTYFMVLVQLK
Procedure: A 2 hr incubation with collagenase B (Roche) was used to remove follicle cells from oocytes. Capped cRNA for Agam\Orco was synthesized using mMessage mMachine kits (Thermo Fisher Scientific). 25 ng of cRNA was injected into stage V–VI oocytes, followed by a 2–5 day incubation at 18 °C in Barth’s saline (in mM: 88 NaCl, 1 KCl, 2.4 NaHCO3, 0.3 CaNO3, 0.41 CaCl2, 0.82 MgSO4, 15 HEPES, pH 7.4, and 0.05 g/L tetracycline, 0.05 g/L ciprofloxacin, 0.1 g/L amikacin) prior to electrophysiological recordings.
An automated parallel electrophysiology system (OpusExpress 6000 A, Molecular Devices) was used to record Orco agonist (OLC12) or odorant induced currents under two-electrode voltage clamp. Oocytes were perfused with ND96 (in mM: 96 NaCl, 2 KCl, 1 CaCl2, 1 MgCl2, 5 HEPES, pH 7.4). DMSO was used to prepare 1 M or 100 mM stock solutions of test compounds, which were then diluted in ND96 on the day of the experiment. Compounds were applied at a flow rate of 1.0 mL/min, with extensive washing in ND96 at 4.6 mL/min between applications. Micropipettes with resistances of 0.2–2.0 MΩ were filled with 3 M KCl. The holding potential was −70 mV. Current responses were filtered (4-pole, Bessel, low pass) at 20 Hz (−3 db) and sampled at 100 Hz. OpusXpress 1.1 software (Molecular Devices) was used to capture and store current responses.
To measure antagonist activity at Orco, Agam\Orco was activated by the Orco agonist OLC12[34]. […] The current response to OLC12 in the presence of antagonist candidate was compared to the mean of the preceding two responses to OLC12 alone and presented as a percentage[34],[35]. This value was then normalized to the value obtained when the assay was run in the absence of antagonist candidate (sham).
During development of the training panel (Fig. 2, Tables S1 and S2), all compounds not previously known to be Orco antagonists were tested at a concentration of 3 mM. […] Concentration-inhibition curves were constructed for all compounds eliciting >20 percent inhibition at 3 mM. The same concentration and criteria were used during screening of predicted actives (Fig. 4D) and predicted inactives (Fig. 5C).
Clampfit 9.1 software (Molecular Devices) was used to perform initial analysis of electrophysiological data. Prism 7 (Graphpad) was used for curve fitting. Concentration-inhibition data were fit to the equation: I = Imax/(1 + (X/IC50)^n) where I represents the current response at a given concentration of inhibitor, X; Imax is the maximal response in the absence of inhibitor; IC50 is the concentration of inhibitor present that allows a half maximal response from OLC12; n is the apparent Hill coefficient.

oocyte = assay: Oocyte toxicity seen during Orco antagonist screening; conditions: at concentrations higher than 300 µM
Excerpt: Figure 4 (A) Scatter plot of predictions (Bayesian scores) from model A and model B for the 138 highest probability predicted actives. […] (B) Cluster membership of the 138 most likely predicted actives and distribution of experimentally tested compounds. […] (D) Antagonist activity of 39 predicted Orco antagonists, as well as the activity of 16 known Orco antagonists (denoted by a dot (•) preceding the compound name). […] Data are presented as mean ± SEM (n = 3–10).

OR expressing neurons = system: OR expressing neurons; set-up: method as in PMID 22272331; conditions: directly injected into sensilla at ≥100 µM; cited from earlier work

Structure (SMILES): CCc1ccc(NC(=O)CSc2nnc(-c3cccnc3)n2CC)cc1 [VUAA1, N-(4-ethylphenyl)-2-((4-ethyl-5-(3-pyridinyl)-4H-1,2,4-triazol-3-yl)thio)acetamide]
- sensitivity of Orco subunit to the agonist [1]: insensitive

Structure (SMILES): C=CC(C)(O)CCC=C(C)C (centres unmarked) [linalool]
- scaled response from DoOR (max = 1.0) (Dmel\Or85b): 0.163
- scaled response from DoOR (max = 1.0) (Dmel\Or67a): 0.158
- scaled response from DoOR (max = 1.0) (Dmel\Or13a): 0.164

Structure (SMILES): Cc1ccc(C(C)C)cc1O [carvacrol]
- decrease in potency relative to 3I6MC (Agam\Orco; Agam\Orco IC50 compared with 3I6MC): 3.6 fold
- IC50 (Agam\Orco; Table S1, training actives, Agam\Orco activated by 30 µM OLC12, mean ± SEM (n = 3-8), read-out: IC50): 146 ± 21 µM
- oocyte toxicity (oocyte): oocyte toxicity at higher concentrations

Structure (SMILES): CCn1c(SCC(=O)N2c3ccccc3Sc3ccccc32)nnc1-c1ccco1 [VU0183254]
- spontaneous firing rate of OR expressing neurons (OR expressing neurons): reduce the spontaneous firing rate
